Test system: P. falciparum 3D7 (chloroquine-sensitive)
Assay: in vitro growth inhibition assay, P. falciparum 3D7
Format: cell-based
Conditions: Plasmodium falciparum, 3D7, read-out: IC50 ± SEM 3D7

Structure (SMILES): [C-]#[N+]C(C)(C)C[C@@H]1C[C@H](C)[C@H]2CC[C@H](C)[C@@]3([N+]#[C-])CCC(=C)[C@@H]1[C@H]23 [compound 1, (−)-8,15-diisocyano-11(20)-amphilectene]
- IC50: 1.2 nM

Reference: paper PMC4815908 (Bioorganic & medicinal chemistry letters, 2015)
